Assay results from ChEMBL document CHEMBL3045770, “Design and synthesis of some thieno[2,3-c]pyridazine derivatives of expected anticancer activity” (2013).

Key:
Type in all cases: functional
UACC-62 = assay: Cytotoxicity against Homo sapiens (human) UACC62 assessed as cell growth at 10 uM after 48 hr by SRB assay relative to control; details: UACC-62, 48 h, read-out: Activity
COLO 205 = assay: Cytotoxicity against Homo sapiens (human) COLO205 assessed as cell growth at 10 uM after 48 hr by SRB assay relative to control; details: COLO 205, 48 h, read-out: Activity
MDA-MB-468 = assay: Cytotoxicity against Homo sapiens (human) MDA-MB-468 assessed as cell growth at 10 uM after 48 hr by SRB assay relative to control; details: MDA-MB-468, 48 h, read-out: Activity
M14 = assay: Cytotoxicity against Homo sapiens (human) M14 assessed as cell growth at 10 uM after 48 hr by SRB assay relative to control; details: M14, 48 h, read-out: Activity
RXF 393 = assay: Cytotoxicity against Homo sapiens (human) RXF393 assessed as cell growth at 10 uM after 48 hr by SRB assay relative to control; details: RXF 393, 48 h, read-out: Activity
SR = assay: Cytotoxicity against Homo sapiens (human) SR assessed as cell growth at 10 uM after 48 hr by SRB assay relative to control; details: read-out: Activity
SNB-75 = assay: Cytotoxicity against Homo sapiens (human) SNB75 assessed as cell growth at 10 uM after 48 hr by SRB assay relative to control; details: SNB-75, 48 h, read-out: Activity
SK-MEL-5 = assay: Cytotoxicity against Homo sapiens (human) SK-MEL-5 assessed as cell growth at 10 uM after 48 hr by SRB assay relative to control; details: SK-MEL-5, 48 h, read-out: Activity
CAKI-1 = assay: Cytotoxicity against Homo sapiens (human) Caki1 assessed as cell growth at 10 uM after 48 hr by SRB assay relative to control; details: CAKI-1, 48 h, read-out: Activity
SW-620 = assay: Cytotoxicity against Homo sapiens (human) SW620 assessed as cell growth at 10 uM after 48 hr by SRB assay relative to control; details: SW-620, 48 h, read-out: Activity
OVCAR-8 = assay: Cytotoxicity against Homo sapiens (human) OVCAR8 assessed as cell growth at 10 uM after 48 hr by SRB assay relative to control; details: OVCAR-8, 48 h, read-out: Activity
NCI-H460 = assay: Cytotoxicity against Homo sapiens (human) NCI-H460 assessed as cell growth at 10 uM after 48 hr by SRB assay relative to control; details: NCI-H460, 48 h, read-out: Activity
T47D = assay: Cytotoxicity against Homo sapiens (human) T47D assessed as cell growth at 10 uM after 48 hr by SRB assay relative to control; details: read-out: Activity
MDA-MB-435 = assay: Cytotoxicity against Homo sapiens (human) MDA-MB-435 assessed as cell growth at 10 uM after 48 hr by SRB assay relative to control; details: MDA-MB-435, 48 h, read-out: Activity
SNB-19 = assay: Cytotoxicity against Homo sapiens (human) SNB19 assessed as cell growth at 10 uM after 48 hr by SRB assay relative to control; details: SNB-19, 48 h, read-out: Activity
A549 = assay: Cytotoxicity against Homo sapiens (human) A549 assessed as cell growth at 10 uM after 48 hr by SRB assay relative to control; details: A549, 48 h, read-out: Activity
RPMI-8226 = assay: Cytotoxicity against Homo sapiens (human) RPMI8226 assessed as cell growth at 10 uM after 48 hr by SRB assay relative to control; details: RPMI-8226, 48 h, read-out: Activity
NCI-H226 = assay: Cytotoxicity against Homo sapiens (human) NCI-H226 assessed as cell growth at 10 uM after 48 hr by SRB assay relative to control; details: NCI-H226, 48 h, read-out: Activity
TK-10 = assay: Cytotoxicity against Homo sapiens (human) TK10 assessed as cell growth at 10 uM after 48 hr by SRB assay relative to control; details: TK-10, 48 h, read-out: Activity
SN12C = assay: Cytotoxicity against Homo sapiens (human) SN12C assessed as cell growth at 10 uM after 48 hr by SRB assay relative to control; details: read-out: Activity
786-0 = assay: Cytotoxicity against Homo sapiens (human) 786-0 assessed as cell growth at 10 uM after 48 hr by SRB assay relative to control; details: 786-0, 48 h, read-out: Activity
HL-60(TB) = assay: Cytotoxicity against Homo sapiens (human) HL-60(TB) assessed as cell growth at 10 uM after 48 hr by SRB assay relative to control; details: HL-60, 48 h, read-out: Activity
DU-145 = assay: Cytotoxicity against Homo sapiens (human) DU145 assessed as cell growth at 10 uM after 48 hr by SRB assay relative to control; details: DU-145, 48 h, read-out: Activity
CCRF-CEM = assay: Cytotoxicity against Homo sapiens (human) CCRF-CEM assessed as cell growth at 10 uM after 48 hr by SRB assay relative to control; details: read-out: Activity
HCT-116 = assay: Cytotoxicity against Homo sapiens (human) HCT116 assessed as cell growth at 10 uM after 48 hr by SRB assay relative to control; details: HCT-116, 48 h, read-out: Activity
BT-549 = assay: Cytotoxicity against Homo sapiens (human) BT549 assessed as cell growth at 10 uM after 48 hr by SRB assay relative to control; details: BT-549, 48 h, read-out: Activity
EKVX = assay: Cytotoxicity against Homo sapiens (human) EKVX assessed as cell growth at 10 uM after 48 hr by SRB assay relative to control; details: read-out: Activity
SK-MEL-28 = assay: Cytotoxicity against Homo sapiens (human) SK-MEL-28 assessed as cell growth at 10 uM after 48 hr by SRB assay relative to control; details: SK-MEL-28, 48 h, read-out: Activity
OVCAR-5 = assay: Cytotoxicity against Homo sapiens (human) OVCAR5 assessed as cell growth at 10 uM after 48 hr by SRB assay relative to control; details: OVCAR-5, 48 h, read-out: Activity
MCF7 = assay: Cytotoxicity against Homo sapiens (human) MCF7 assessed as cell growth at 10 uM after 48 hr by SRB assay relative to control; details: MCF7, 48 h, read-out: Activity
[1] = Cytotoxicity against Homo sapiens (human) NCI-ADR-RES assessed as cell growth at 10 uM after 48 hr by SRB assay relative to control; details: read-out: Activity
LOX IMVI = assay: Cytotoxicity against Homo sapiens (human) LOXIMVI assessed as cell growth at 10 uM after 48 hr by SRB assay relative to control; details: read-out: Activity
HCC 2998 = assay: Cytotoxicity against Homo sapiens (human) HCC2998 assessed as cell growth at 10 uM after 48 hr by SRB assay relative to control; details: HCC 2998, 48 h, read-out: Activity

Row | SMILES | growth at 10 µM (UACC-62) [%] | growth at 10 µM (COLO 205) [%] | growth at 10 µM (MDA-MB-468) [%] | growth at 10 µM (M14) [%] | growth at 10 µM (RXF 393) [%] | growth at 10 µM (SR) [%] | growth at 10 µM (SNB-75) [%] | growth at 10 µM (SK-MEL-5) [%] | growth at 10 µM (CAKI-1) [%] | growth at 10 µM (SW-620) [%] | growth at 10 µM (OVCAR-8) [%] | growth at 10 µM (NCI-H460) [%] | growth at 10 µM (T47D) [%] | growth at 10 µM (MDA-MB-435) [%] | growth at 10 µM (SNB-19) [%] | growth at 10 µM (A549) [%] | growth at 10 µM (RPMI-8226) [%] | growth at 10 µM (NCI-H226) [%] | growth at 10 µM (TK-10) [%] | growth at 10 µM (SN12C) [%] | further results
1 | CCOC(=O)c1c(Nc2ccc(S(=O)(=O)Nc3nccs3)cc2)nnc(-c2ccccc2)c1-c1ccccc1 | 92.9 | 114 | 110 | 104 | 120 | 76.2 | 104 | 97.6 | 107 | 131 | 102 | 111 | 104 | 119 | 108 | 110 | 96.5 | 102 | 109 | 94.8 | growth at 10 µM (786-0): 109%; growth at 10 µM (HL-60(TB)): 104%; growth at 10 µM (DU-145): 114%; growth at 10 µM (CCRF-CEM): 91.3%; growth at 10 µM (HCT-116): 98.6%; growth at 10 µM (BT-549): 98.9%; growth at 10 µM (EKVX): 102%; growth at 10 µM (SK-MEL-28): 113%; growth at 10 µM (OVCAR-5): 117%
2 | CSc1nnc(-c2sc3nnc(-c4ccccc4)c(-c4ccccc4)c3c2O)o1 | 58.9 | 110 | 78.9 | 73 | 82.6 | 62.5 | 78.4 | 83.5 | 43.5 | 92.5 | 85.8 | 56.7 | 75 | 88.4 | 66.4 | 80.5 | 67.2 | 87.7 | 100 | 75.7 | growth at 10 µM (MCF7): 83.5%; growth at 10 µM (786-0): 88.7%; growth at 10 µM (HL-60(TB)): 107%; growth at 10 µM (DU-145): 84.7%; growth at 10 µM (CCRF-CEM): 47.4%; growth at 10 µM (HCT-116): 60.9%; growth at 10 µM (BT-549): 74.1%; growth at 10 µM [1]: 85.5%; growth at 10 µM (EKVX): 77.5%; growth at 10 µM (SK-MEL-28): 85.5%; growth at 10 µM (OVCAR-5): 101%
3 | Oc1c(-c2n[nH]c(=S)o2)sc2nnc(-c3ccccc3)c(-c3ccccc3)c12 | 94.3 | 106 | 108 | 99.5 | 109 | 83.4 | 72.6 | 94.7 | 93.3 | 124 | 106 | 116 | 105 | 93.6 | 103 | 107 | 102 | 91.5 | 103 | 94 | growth at 10 µM (MCF7): 92%; growth at 10 µM (786-0): 108%; growth at 10 µM (HL-60(TB)): 101%; growth at 10 µM (DU-145): 112%; growth at 10 µM (CCRF-CEM): 96.1%; growth at 10 µM (HCT-116): 103%; growth at 10 µM (BT-549): 99.5%; growth at 10 µM (EKVX): 102%; growth at 10 µM (SK-MEL-28): 102%; growth at 10 µM (OVCAR-5): 102%
4 | CCOC(=O)c1c(Nc2ccc(S(N)(=O)=O)cc2)nnc(-c2ccccc2)c1-c1ccccc1 | 90.2 | 113 | 97.9 | 104 | 109 | 76.1 | 84.6 | 94.6 | 83.8 | 105 | 99.8 | 108 | 91.3 | 107 | 108 | 90.9 | 80.9 | 102 | 108 | 104 | growth at 10 µM (LOX IMVI): 99.4%; growth at 10 µM (HL-60(TB)): 71.2%; growth at 10 µM (DU-145): 120%; growth at 10 µM (CCRF-CEM): 81.8%; growth at 10 µM (HCT-116): 93.3%; growth at 10 µM (BT-549): 95%; growth at 10 µM [1]: 96.8%; growth at 10 µM (HCC 2998): 96.8%; growth at 10 µM (EKVX): 105%; growth at 10 µM (SK-MEL-28): 107%; growth at 10 µM (OVCAR-5): 116%
